# Data published in patent US20220305092A1, “MEDICAMENT AND FOOD FOR PREVENTING OR TREATING NOVEL CORONAVIRUS PNEUMONIA COVID-19 AND USE THEREOF” (GUANGZHOU CENTURY CLINICAL RESEARCH CO., LTD, priority 2020, published 2022).
# Legend:
# [1] = test system: COVID-19 virus; experiment: Inhibition of cytopathic effect caused by COVID-19 virus in VeroE6 cells; assay type: cell-based; settings: for inhibition of the cytopathic effect caused by the COVID-19 virus (in words): Example 2, VeroE6 cells
# [2] = test system: guinea pigs which had inhaled smoke; experiment: Airway resistance and lung function of guinea pigs which had inhaled smoke; assay type: in vivo, guinea pig
# Description: The smoke-induced model was a classic animal model for chronic obstructive pulmonary disease. After inhaling smoke for a long period of time, animals could suffer from increased mucus secretion, airway obstruction, lung function decline, etc. The effect of the lysozyme on airway obstruction was evaluated by means of the model establishment method in the present experiment.
# Lysozyme, monoammonium glycyrrhizinate, and monopotassium glycyrrhizinate.
# Male Hartley guinea pigs, weighing 400 to 500 g, were randomly divided into a blank group, a model group, a lysozyme oral administration group (200 mg/kg), a lysozyme inhalation group (2 mg/kg), lysozyme+monoammonium glycyrrhizinate inhalation group (2 mg/kg+0.1 mg/kg), lysozyme+monopotassium glycyrrhizinate oral administration group I (200 mg/kg+20 mg/kg), and lysozyme+monopotassium glycyrrhizinate oral administration group II (200 mg/kg+40 mg/kg), with eight animals in each group.
# The animals in each group except the blank group were exposed to cigarette smoke by using a smoke exposure system for oro-nasal inhalation only, such that the animals inhaled smoke of five cigarettes within 40 minutes per day, for 5 exposure days per week, for 12 consecutive weeks.
# The lysozyme and monoammonium glycyrrhizinate used for inhalation administration were respectively crushed into powders with a particle size of less than 10 μm. The lysozyme and monopotassium glycyrrhizinate used for oral administration were respectively dissolved in normal saline.
# The animals in each group except the blank group and the model group were administered once a day for 4 consecutive weeks from the 8th week after the model establishment began. The inhalation administration groups were administered by means of an oro-nasal inhalation exposure system, while the oral administration groups were administered intragastrically. Animals in the blank group and the model group were administered intragastrically with normal saline per day.
# Airway resistance measurement and 100 ms (millisecond) expiratory volume measurement were performed after administration.
# The animals were placed in a double chamber plethysmography system, and after the animals were left in a tranquil state for 10 minutes, the specific airway resistance (sRaw) was measured. The animals were anesthetized by intramuscular injection of ketamine, then a catheter was then inserted into the trachea, and the forced expiratory volume in 100 ms (FEV 100) of the animals was measured through a lung function testing system.
# [3] = test system: lipopolysaccharide-induced intestinal barrier dysfunction in mice; experiment: Intestinal permeability (serum FITC-glucan) in lipopolysaccharide-induced intestinal barrier dysfunction in mice; assay type: in vivo, mouse; settings: 100 mg/kg intragastrically, 30 days, model 35.06, blank 9.40
# Text: Lipopolysaccharides could cause impaired intestinal function in animals. The protective effect of lysozyme and lysozyme combinations against lipopolysaccharide-induced intestinal barrier dysfunction in mice were studied in the present experiment.
# Test drugs: lysozyme, monoammonium glycyrrhizinate, and dipotassium glycyrrhizinate.
# Test animals: clean-grade male C57BL/6 mice, weighing 20 to 25 g.
# Animal grouping and administration: The animals were randomly divided into a blank group, a model group, a lysozyme group (100 mg/kg), lysozyme+monoammonium glycyrrhizinate group A (100 mg/kg+2 mg/kg), lysozyme+monoammonium glycyrrhizinate group B (100 mg/kg+10 mg/kg), lysozyme+monoammonium glycyrrhizinate group C (100 mg/kg+20 mg/kg), and a lysozyme+dipotassium glycyrrhizinate group (100 mg/kg+2 mg/kg), with eight animals in each group. […]
# Determination of intestinal permeability: The animals of each group were administered intragastrically with 600 mg/kg of FITC-glucan (dissolved in a phosphate buffer), and after 4 hours, blood was taken from eyeballs. The content of the FITC-glucan in the serum was measured by means of fluorescence spectrometry (with an excitation wavelength of 480 nm and an emission wavelength of 520 nm), and the results were shown in Table 5.
# [4] = test system: occludin protein; experiment: Occludin mRNA expression in jejunum tissue of lipopolysaccharide-treated mice (quantitative PCR); assay type: in vivo, mouse; settings: 100 mg/kg, model 0.54, blank 1.04
# Description: (§1) Animal grouping and administration: The animals were randomly divided into a blank group, a model group, a lysozyme group (100 mg/kg), lysozyme+monoammonium glycyrrhizinate group A (100 mg/kg+2 mg/kg), lysozyme+monoammonium glycyrrhizinate group B (100 mg/kg+10 mg/kg), lysozyme+monoammonium glycyrrhizinate group C (100 mg/kg+20 mg/kg), and a lysozyme+dipotassium glycyrrhizinate group (100 mg/kg+2 mg/kg), with eight animals in each group. Each drug group was administered intragastrically by each dose of drugs every day, while the blank group and the model group were administered with normal saline. The administration was performed for 30 consecutive days.
# (§2) Model establishment: After administration, the animals of each group except the blank group were intraperitoneally injected with 15 mg/kg of lipopolysaccharides, and the blank group was injected with normal saline. The animals were fasted for 12 hours after injection.
# (§3) Determination of expression of tight junction proteins in intestinal tissue: After the animals were sacrificed, jejunum tissue samples were taken for RNA extraction, the relative expression levels of occludin protein and Claudin-1 protein in the tissues were detected by quantitative PCR and the results were shown in Table 6.
# [5] = test system: Claudin-1 protein; experiment: Claudin-1 mRNA expression in jejunum tissue of lipopolysaccharide-treated mice (quantitative PCR); assay type: in vivo, mouse; settings: 100 mg/kg, model 0.73, blank 1.07
# Description: as §1, §2, §3
# [6] = inhalation, 2 mg/kg once a day for 4 weeks
Compound,"Inhibition rate (%) ([1]; 350 μg/ml, Example 3)",inhibition of the cytopathic effect caused by the COVID-19 virus (in words) [1],"100 ms expiratory volume [2, 6]","Airway resistance (cmH2O · s) [2, 6]","100 ms expiratory volume ([2]; oral administration, 200 mg/kg once a day for 4 weeks, model 4.18, blank 11.86)","Airway resistance (cmH2O · s) ([2]; oral administration, 200 mg/kg once a day for 4 weeks, model 4.72, blank 1.43)",Content of FITC-glucan [3],Relative expression quantity of Occludin mRNA [4],Relative expression quantity of Claudin-1 mRNA [5],"Inhibition rate (%) ([1]; 1000 μg/ml, VeroE6 cells, 100 TCID50, 4 days)","Inhibition rate (%) ([1]; 2000 μg/ml, VeroE6 cells, 100 TCID50, 4 days)"
lysozyme,6.67 ± 1.56%,significantly inhibited,7.68 ± 1.36 mL,3.10 ± 0.14 cmH2O · s,5.79 ± 2.03 mL,3.79 ± 0.30 cmH2O · s,27.53 ± 3.21 µg/mL,0.69 ± 0.07,0.79 ± 0.16,,
"CC1(C)[C@@H](O[C@H]2O[C@H](C(=O)O)[C@@H](O)[C@H](O)[C@H]2O[C@@H]2O[C@H](C(=O)O)[C@@H](O)[C@H](O)[C@H]2O)CC[C@]2(C)[C@H]3C(=O)C=C4[C@@H]5C[C@@](C)(C(=O)O)CC[C@]5(C)CC[C@@]4(C)[C@]3(C)CC[C@@H]12.N [Monoammonium glycyrrhizinate, monoammonium glycyrrhizinate]",,relatively weak inhibition effect,,,,,,,,23.35 ± 5.43%,29.42 ± 7.16%
